Experimental data reported in US4818761A, “2-(4-pyridylaminomethyl)-benzimidazole derivatives having antiviral activity” (priority 1986, dated 1989).
Values after ≈ are worked out from the molar mass of the structure shown.

Assays:
[1] = test system: poliovirus type 2 (Polio2); assay: microbe, parasite or virus in culture; assay type: cell-based; settings: for IC50: Enterovirus C, LLC-MK2, read-out: IC50 Polio2; for CI Polio2 (C)/(A): CI = CD50 (LLC-MK2)/IC50 (plaque)
in vitro [2] = settings: human, hela cells
[3] = test system: enterovirus type 70 (EV70); assay: Inhibition of EV70 plaque formation in LLC-MK2 cells; assay type: cell-based; settings: for CI EV70 (C)/(A): CI = CD50 (LLC-MK2)/IC50 (plaque); for IC50: Enterovirus D, plaque reduction, LLC-MK2 cells, 33° C.
[4] = test system: rhinovirus type 14 (HRV14); assay: Inhibition of HRV14 cytopathogenic effect (CPE) in HeLa cells; assay type: cell-based; settings: for IC50: Enterovirus, HRV14, * Virus CPE inhibition assay, HeLa cells, 33° C.
in vitro [5] = settings: monkey, llc-mk2 cells
[6] = test system: coxsackievirus type B4 (CB4); assay: Inhibition of CB4 plaque formation in LLC-MK2 cells; assay type: cell-based; settings: for CI CB4 (C)/(A): CI = CD50 (LLC-MK2)/IC50 (plaque); for IC50: Coxsackievirus, plaque reduction, LLC-MK2 cells, 37° C.
[7] = test system: coxsackievirus type B4 (CB4); assay: Inhibition of CB4 cytopathogenic effect (CPE) in LLC-MK2 cells; assay type: cell-based; settings: Coxsackievirus; * Virus CPE inhibition assay, LLC-MK2 cells, 37° C.
[8] = test system: enterovirus type 70 (EV70); assay: Inhibition of EV70 cytopathogenic effect (CPE) in LLC-MK2 cells; assay type: cell-based; settings: for IC50: Enterovirus D, * Virus CPE inhibition assay, LLC-MK2 cells, 33° C.
[9] = test system: rhinovirus type 14 (HRV14); assay: Inhibition of HRV14 plaque formation in HeLa cells; assay type: cell-based; settings: for CI HRV14 (D)/(B): CI = CD50 (HeLa)/IC50 (plaque); for IC50: Enterovirus, HRV14, plaque reduction, HeLa cells, 33° C.

SMILES | IC50 [1] [µg/mL] | CC50 (in vitro [2]) [µg/mL] | CI EV70 (C)/(A) [3] | IC50 [3] [µg/mL] | IC50 [4] [µg/mL] | CC50 (in vitro [5]) [µg/mL] | CI CB4 (C)/(A) [6] | IC50 [6] [µg/mL] | IC50 [7] [µg/mL] | IC50 [8] [µg/mL] | CI Polio2 (C)/(A) [1] | CI HRV14 (D)/(B) [9] | IC50 [9] [µg/mL] | CI HRV14 (D)/(B) ([4]; CI = CD50 (HeLa)/IC50 (virus CPE)) | CI EV70 (C)/(A) ([8]; CI = CD50 (LLC-MK2)/IC50 (virus CPE))
CCOc1ccc2[nH]c(CNc3ccncc3)nc2c1 [IV] | 460 (≈ 1710 µM) | > 100 | > 3 | 39 (≈ 145 µM) | > 100 | > 100 | > 1 | 93 (≈ 347 µM) | – | – | – | – | – | – | –
CC(C)(C)C(=O)Cn1c(CNc2ccncc2)nc2ccccc21 [LIII] | – | – | – | – | > 100 | > 2000 | – | – | > 100 | > 100 | – | – | – | – | –
CCOCCn1c(CNc2ccncc2)nc2ccccc21 [LIV] | – | – | – | – | > 100 | > 2000 | – | – | > 100 | > 100 | – | – | – | – | –
Clc1ccc(-n2c(CNc3ccncc3)nc3ccccc32)cc1 [LIX] | 9.6 (≈ 28.7 µM) | > 100 | > 833 | 1.2 (≈ 3.58 µM) | – | > 1000 | > 1,176 | 0.85 (≈ 2.54 µM) | – | – | > 111 | > 4 | 25 (≈ 74.7 µM) | – | –
Cl.Fc1cccc(-n2c(CNc3ccncc3)nc3ccccc32)c1 [LVIII, 1-(3-fluorophenyl)-2-(4-pyridylaminomethyl)benzimidazole hydrochloride] | > 100 | > 100 | > 200 | 5 | > 100 | > 1000 | > 278 | 3.6 | – | – | – | – | – | – | –
Fc1ccccc1-n1c(CNc2ccncc2)nc2ccccc21 [LVII] | > 100 | > 100 | 83 | 24.1 (≈ 75.7 µM) | > 100 | 2000 (≈ 6280 µM) | 233 | 8.6 (≈ 27 µM) | – | – | – | – | – | – | –
CC(=O)OCCOCn1c(CNc2ccncc2)nc2ccccc21 [LV] | 17.6 (≈ 51.7 µM) | > 100 | > 63 | 1.6 (≈ 4.7 µM) | – | > 100 | 8 | 11.9 (≈ 35 µM) | – | – | > 6 | > 6 | 15.6 (≈ 45.8 µM) | – | –
CCc1ccccc1-n1c(CNc2ccncc2)nc2ccccc21 [LXV] | – | > 100 | – | – | > 100 | > 100 | – | – | > 100 | > 100 | – | – | – | – | –
c1ccc2c(c1)nc(CNc1ccncc1)n2-c1nccs1 [LXXIII] | – | > 100 | – | – | > 100 | > 100 | – | – | > 100 | > 100 | – | – | – | – | –
c1ccc(Oc2ccc3[nH]c(CNc4ccncc4)nc3c2)cc1 [LXXIV] | – | > 100 | – | – | – | > 100 | – | – | > 100 | > 100 | – | > 6 | 17.8 (≈ 56.3 µM) | – | –
Cc1ccc(-n2c(CNc3ccncc3)nc3ccccc32)cc1F [LXXI] | > 50 | > 100 | > 25 | 4 (≈ 12 µM) | – | > 100 | > 31 | 3.2 (≈ 9.63 µM) | – | – | – | > 2 | 49.7 (≈ 150 µM) | – | –
CCc1cc2c(cc1Cl)nc(CNc1ccncc1)n2-c1ccccc1 [LXXV, 1-phenyl-2-(4-pyridylaminomethyl)-5-chloro-6-ethylbenzimidazole] | – | 17.8 (≈ 49.1 µM) | – | – | 5.6 (≈ 15.4 µM) | > 100 | – | – | > 100 | > 56.2 | – | – | – | 3 | > 2
Cc1ccc(-n2c(CNc3ccncc3)nc3ccccc32)cc1C [LXX] | > 50 | > 100 | > 15 | 6.5 (≈ 19.8 µM) | – | > 100 | > 6 | 16 (≈ 48.7 µM) | – | – | – | > 2 | 40.7 (≈ 124 µM) | – | –
Brc1ccc(-n2c(CNc3ccncc3)nc3ccccc32)cc1 [LX] | > 50 | > 100 | > 53 | 1.9 (≈ 5.01 µM) | – | > 100 | > 100 | 1 (≈ 2.64 µM) | – | – | – | > 3 | 39.9 (≈ 105 µM) | – | –
CC(C)c1ccc2[nH]c(CNc3ccncc3)nc2c1 [VI] | > 100 | 56.2 (≈ 211 µM) | > 476 | 2.1 (≈ 7.88 µM) | – | > 1000 | > 15 | 69 (≈ 259 µM) | – | – | – | 3 | 16.5 (≈ 61.9 µM) | – | –
